Assay results: patent US6946480B2, “Glutaminyl based DPIV inhibitors” (priority 2002, dated 2005)

Target: T1, plasma DPIV activity (Rattus norvegicus, UniProt P14740)
T1 construct: The assay mixture for determination of plasma DPIV activity consisted of 80 μl reagent and 20 μl plasma sample; from tissue; host or cells: plasma of male Wistar rats
Assay: Plasma DPIV inhibiting activity after intravasal and oral administration to Wistar rats
Assay type: in vivo
Details: 100 mg/kg b.w. vs. placebo, oral and intra-vasal administration
Protocol: Male Wistar rats (Shoe: Wist(Sho)) with a body weight ranging between 250 and 350 g were purchased from Tierzucht Schönwalde (Schönwalde, Germany).
Animals were single-caged under conventional conditions with controlled temperature (22±2° C.) on a 12/12 hours light/dark cycle (light on at 06:00 AM). Standard pelleted chow (ssniff® Soest, Germany) and tap water acidified with HCl were allowed ad libitum.
After ≧one week of adaptation at the housing conditions, catheters were implanted into the carotid artery of Wistar rats under general anaesthesia (i.p. injection of 0.25 ml/kg b.w. Rompun® [2%], BayerVital, Germany and 0.5 ml/kg b.w. Ketamin 10, Atarost GmbH & Co., Twistringen, Germany). The animals were allowed to recover for one week. The catheters were flushed with heparin-saline (100 IU/ml) three times per week. In case of catheter dysfunction, a second catheter was inserted into the contra-lateral carotid artery of the respective rat. After one week of recovery from surgery, this animal was reintegrated into the study. In case of dysfunction of the second catheter, the animal was withdrawn from the study. […]
Statistical evaluations and graphics were performed with PRISM® 3.02 (GraphPad Software, Inc.). All parameters were analysed in a descriptive manner including mean and SD.

T1 sequence (P14740 37-767 limits assumed): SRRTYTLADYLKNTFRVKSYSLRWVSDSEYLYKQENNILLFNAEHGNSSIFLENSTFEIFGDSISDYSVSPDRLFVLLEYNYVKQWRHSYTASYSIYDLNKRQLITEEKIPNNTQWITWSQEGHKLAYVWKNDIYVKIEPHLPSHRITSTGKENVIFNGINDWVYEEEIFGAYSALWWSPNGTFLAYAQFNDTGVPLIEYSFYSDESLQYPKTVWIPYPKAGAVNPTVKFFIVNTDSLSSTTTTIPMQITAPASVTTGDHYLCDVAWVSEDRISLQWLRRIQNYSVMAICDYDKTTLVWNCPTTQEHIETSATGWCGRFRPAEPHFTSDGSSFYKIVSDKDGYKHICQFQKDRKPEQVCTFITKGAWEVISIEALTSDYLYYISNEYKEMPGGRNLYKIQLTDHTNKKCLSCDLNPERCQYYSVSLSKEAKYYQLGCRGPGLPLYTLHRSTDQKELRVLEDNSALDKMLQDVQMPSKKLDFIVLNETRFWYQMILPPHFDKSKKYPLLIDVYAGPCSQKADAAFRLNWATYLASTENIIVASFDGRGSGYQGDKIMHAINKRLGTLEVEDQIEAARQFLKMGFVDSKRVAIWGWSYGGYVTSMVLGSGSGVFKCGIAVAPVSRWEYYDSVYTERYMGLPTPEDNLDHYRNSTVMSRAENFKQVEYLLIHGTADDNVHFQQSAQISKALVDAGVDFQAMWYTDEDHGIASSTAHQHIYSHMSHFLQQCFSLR

NC(=O)CC[C@H](N)C(=O)N1CCCC1 [glutaminyl pyrrolidine]
inhibition of plasma DPIV activity in vivo: inhibited plasma DPIV activity
